Test results taken from patent US20160354333A1, “COMPOSITIONS OF POLYUNSATURATED FATTY ACIDS AND METHODS OF USE THEREOF” (UND Life Sciences, LLC, priority 2015, published 2016).
Where two headings read alike, the source gives them in different places.

Columns and labels:
[1] = test system: tumor cells; assay: Tumoricidal action: ability to induce apoptosis of tumor cells; assay type: cell-based
Source text: For instance, GLA is metabolized in the tumor cells to form 15-, 12- and 8-OH 20 carbon and 13-OH 18 carbon fatty acid derivatives that seem to be responsible for the apoptosis of tumor cells. In contrast to this, DGLA could go through an exclusive C-8 oxygenation pathway during COX-catalyzed lipid peroxidation in addition to a C-15 oxygenation pathway shared by both DGLA and AA, and that the exclusive C-8 oxygenation could lead to the production of distinct DGLA's free radical derivatives that may be correlated with DGLA's anti-proliferation activity. As shown below DGLA can go through a unique C-8 oxygenation reaction pathway, in addition to a C-15 oxygenation pathway shared by both DGLA and AA.
similar to the one that is formed from DGLA as described above) product, instead of the more common aldehyde. Thus, it is evident that the peroxidation products formed from GLA, DGLA and AA are totally different, and this may account for the differences in their tumoricidal action wherein GLA>DGA>AA with regard to their ability to induce apoptosis of tumor cells.

[2] = test system: IFN-sensitive / IFN-resistant tumor cells; assay: Apoptosis and lipid droplet accumulation in IFN-sensitive and IFN-resistant tumor cells; assay type: cell-based; settings: IFN-resistant cells pre-treated with GLA/AA, then exposed to IFN
Source text: The present inventor also unexpectedly discovered that the anti-cancer actions of interferon (IFN) and tumor necrosis factor-a (TNF-a) need the presence of substantial amounts of cellular content of GLA, AA, EPA and DHA (˜GLA≧AA>EPA>DHA).

[3] = test system: bone marrow cells of mice; assay: Side effects of gamma-radiation and cis-platinum on bone marrow cells of mice; assay type: in vivo
Source text: Thus, it appears that when PUFAs and conventional anti-cancer drugs/agents are given together they not only act to potentiate the cytotoxic action of each other on the tumor cells and thus, produce synergistic and/or additive action on their ability to eliminate the tumor cells but it will also lead to elimination, reduction, or amelioration of the side effects of conventional anti-cancer agents. Since, PUFAs are able to potentiate the cytotoxic action(s) of conventional anti-cancer drugs (agents) and cytokines; it is also possible that this will lead to a significant reduction in the doses of these latter agents without compromising the ultimate benefit namely, elimination of tumor cells or the tumor. Accordingly, certain embodiments are directed to methods comprising administering a PUFA (e.g., GLA) containing compositions as described herein and a conventional anti-cancer drug to a subject in need thereof.

[4] = test system: cancer cells; settings: 72 hrs
Protocol: 1×10^4 cancer cells or normal cells were incubated with the GLA composition for 72 hrs and viability of the cells in vitro determined.

[5] = test system: normal cells; settings: 10 μg/ml GLA, 1×10^4 cells, 72 hrs
Source text: FIG. 9 provides cytotoxicity data in normal cells for GLA solutions in varying concentrations of ethanol.

[6] = Protocol: In a separate experiment, GLA was dissolved in saline/PBS (pH 7.4) comprising 0.01% ethanol at 37° C. or saline/PBS (pH 7.4), and different concentrations of lithium was added. At the end of the incubation time the concentration of GLA present was tested. […] The same test system is used to test the effect of Mg, Mn, Zn, Fe, Cu salts on the stability of GLA. The concentrations of these metals used are same as that of Lithium.
[7] = test system: cancer; settings: free acid form versus other forms
Source text: In general, it was believed that the potency of actions of a free acid form is equal to or similar to sodium salt, ethyl ester, methyl ester or other forms of salts, esters, glycerides, amides, or phospholipids, or alkylated, alkoxylated, halogenated, sulfonated, or phosphorylated forms of the fatty acid.

[8] = test system: RIN cells
[9] = 1 mg GLA, 0.01% ethanol PBS/saline; GLA:lithium ratio exceeding about 1:0.01
Protocol: The effect of lithium as an exemplary stabilizing agent in compositions of GLA was tested as follows. To 1 mg (1000 μg) of GLA dissolved in a solution of PBS/saline comprising 0.01% ethanol was added different concentrations of lithium (as lithium chloride), and after a specific period of incubation the concentration of GLA present in the solution was tested.

[10] = test system: tumor cells; settings: solvent (ethyl alcohol) content above 0.01% and lower than 0.001%
[11] = 0.01% ethanol/saline/PBS pH 7.4 at 37° C. versus saline/PBS, no lithium
Source text: FIG. 7 is additional stability data for GLA solutions comprising 0.01% ethanol/saline/PBS or saline/PBS without added lithium.

[12] = test system: IMR-32 cells; assay: Growth of IMR-32 cells; assay type: cell-based; parameters: unit of the concentration uncertain
Source text: hypercalcemia, tumor cancer cell proliferation, tumor angiogenesis and resistance of tumor to anti-VEGF therapy (see FIG. 1). In addition, PGE2 may have the ability to modulate NO generation. […] Though this growth promoting action of indomethacin and NDGA could be attributed to their non-specific anti-oxidant actions, it is equally possible that some unknown products have been generated from PUFAs that have growth promoting actions. […] Accordingly, treatment of tumor cells with PUFAs according to embodiments of the invention is believed to be a viable treatment method for cancers, such as glioma.

With `CCCCC/C=C\C/C=C\C/C=C\C/C=C\CCCC(=O)O` [AA, arachidonic acid, reference compound] the “rank order of ability to induce apoptosis of tumor cells” value (shortened to “rank order of ability”) [1] was “GLA>DGA>AA”, the “apoptosis and lipid droplets” value [2] was “both induction of apoptosis and accumulation of lipid droplets in the tumor cells were seen” and the “side effects of gamma-radiation and cis-platinum to bone marrow cells” value [3] was “prevent or ameliorate the side effects”.
In the case of `CCCCC/C=C\C/C=C\C/C=C\CCCCCCC(=O)O` [DGLA, di-homo gamma linolenic acid], the “rank order of ability” value [1] is reported as “GLA>DGA>AA”.
With `CCCCC/C=C\C/C=C\C/C=C\CCCCC(=O)O` [GLA, gamma-linolenic acid] the “rank order of ability” value [1] was “GLA>DGA>AA”, the “background death of cells” value ([4]; 10 μg/ml GLA, 1×10^4 cells) was 10-15% and the “background death of cells” value [5] was 10-15%. The “apoptosis and lipid droplets” value [2] was “both induction of apoptosis and accumulation of lipid droplets in the tumor cells were seen”, the “concentration of GLA relative to lithium” value ([6]; Mg, Mn, Zn, Fe, Cu salts, same concentrations and incubation periods as lithium) was “decrease the concentration of GLA” and the “stability of GLA (percentage of original GLA remaining)” value ([6]; comparison solutions, printed as 'solutions with ethanol') was “less stable”. The “stability of GLA (percentage of original GLA remaining)” value ([6]; saline/PBS pH 7.4 with 0.01% ethanol at 37° C. plus lithium) was “stabilizing effect”, the “potency of anti-cancer action” value [7] was “more potent than sodium salt, ethyl ester, methyl ester” and the “side effects of gamma-radiation and cis-platinum to bone marrow cells” value [3] was “prevent or ameliorate the side effects”. For the same compound, the “generation of LXA4” value ([8]; PUFAs 15 μg, pretreatment with alloxan, simultaneous treatment with STZ) was “greater than or equal to all other fatty acids tested”, the “formation of LXA4” value ([8]; studies performed in support of the invention) was “enhances the formation of LXA4” and the “stability of GLA (percentage of original GLA remaining)” value [9] was “stability of GLA decreased”. The “activity, stability and tumoricidal action” value [10] was “relatively inactive, unstable and its tumoricidal action inefficient” and the “stability of GLA (percentage of original GLA remaining)” value [11] was “stabilizing effect”.
In the case of `CCCCC/C=C\C\C=C/C=C/C=C/[C@@H](SC[C@H](N)C(=O)NCC(=O)O)[C@@H](O)CCCC(=O)O` [LTD4], the “growth of IMR-32 cells” value [12] is reported as “growth inhibitory action”.
With `CCCCC[C@H](O)/C=C/C=C\C=C\C=C\[C@@H](O)[C@@H](O)CCCC(=O)O` [LXA4] the “growth of IMR-32 cells” value [12] was “inhibited the growth of IMR-32 cells”.
For `CCCCC[C@H](O)/C=C/[C@H]1[C@H](O)CC(=O)[C@@H]1CCCCCCC(=O)O` [PGE1], the “growth of IMR-32 cells” value [12] was “growth inhibitory action”.
With `CCCCC[C@H](O)/C=C/[C@H]1[C@H](O)CC(=O)[C@@H]1C/C=C\CCCC(=O)O` [PGE2] the “growth of IMR-32 cells” value [12] was “growth inhibitory action”.
For `CCO` [ethanol], the “concentration of ethanol resulting in cell death” value ([4]; with 10 μg/ml GLA in saline/PBS) was “above 0.01%”.
For `COc1ccc2c(c1)c(CC(=O)O)c(C)n2C(=O)c1ccc(Cl)cc1` [indomethacin], the “growth of IMR-32 cells” value ([12]; 60 (unit uncertain)) was “enhanced the growth of IMR-32 cells”.
In the case of `CC(Cc1ccc(O)c(O)c1)C(C)Cc1ccc(O)c(O)c1` (stereo not shown) [nordihydroguaiaretic acid], the “growth of IMR-32 cells” value ([12]; 20 (unit uncertain)) is reported as “enhanced the growth of IMR-32 cells”.
